Source: patent publication US8962630B2, “Pyrrolopyrimidine compounds and their uses” (Novartis AG, priority 2008, dated 2015)
Where two headings read alike, the source gives them in different places.

Experiments:
Assay type in all cases: biochemical
CDK4/cyclin D1 = CDK4/cyclin D1 (Homo sapiens (Human), UniProt P11802); assay: CDK4/Cyclin D1 enzymatic activity assay (Lance TR-FRET)
Protocol: A 384-well microtiter Lance TR-FRET (time-resolved-fluorescence energy transfer) endpoint assay was used for CDK4/cyclin D1 kinase activity measurements. The same assay was used for IC50 determination of small molecule inhibitors. In general, the kinase reactions were carried out in 30 μL volumes in the reaction solution containing the following: 2 uL compound (in […]), 18 uL CDK4/cyclin D1 in Assay Buffer (50 mM HEPES, pH 7.5, 5 mM MgCl2, 2 mM MnCl2, 1 mM DTT, 0.05% BSA, 0.02% Tween-20), 10 uL of the mixture of pRb152 and ATP. The final reaction mixture contains compound (inhibitor) with the concentration varying from 0.005-10 μM, 2% DMSO, 0.3 nM CDK4/cyclin D1, 175 nM pRb152, and 3 μM ATP (Amersham Pharmacia, Cat. No. 27-2056-01). All reactions were run at room temperature in 384-well white flat-bottom OptiPlates (Perkin Elmer, Cat. No. 6007290) for 60 min then were quenched by the addition of 10 μL of 120 mM EDTA. The signals were captured by the addition of 40 μL of the Detection Solution containing the following: Detection Buffer (50 mM HEPES, pH 7.5, 30 mM EDTA, 0.1% Triton x-100, 0.05% BSA), 70 ng/mL anti-phospho-pRb(S780) (Cell Signaling Technology, Cat. No. 9307S), 1 nM Lance Eu-W1024-Rabbit anti-IgG (Perkin Elmer, Cat. No. AD0082), and 20 nM SureLight™ Allophycocyanin-Streptavidin (Perkin Elmer, Cat. No. CR130-100). The resulted solutions were incubated at room temperature for 2 hours before read on the Evision Multilabel Reader (Perkin Elmer, Envision 2102-0010).
CDk4/cyclin D1 recombinant protein used in the enzymatic activity assay was prepared by coexpressing pDEST10-CDK4 (N-terminal His6) and pFastBacDual-GST-hCyclinDl viruses in Sf21 cells.

CDK1/cyclin B = CDK1/cyclin B (Homo sapiens (Human), UniProt P06493); assay: CDK1/Cyclin B enzymatic activity assay (IMAP-FP)
Chain of CDK1/cyclin B (P06493 whole entry, species assumed): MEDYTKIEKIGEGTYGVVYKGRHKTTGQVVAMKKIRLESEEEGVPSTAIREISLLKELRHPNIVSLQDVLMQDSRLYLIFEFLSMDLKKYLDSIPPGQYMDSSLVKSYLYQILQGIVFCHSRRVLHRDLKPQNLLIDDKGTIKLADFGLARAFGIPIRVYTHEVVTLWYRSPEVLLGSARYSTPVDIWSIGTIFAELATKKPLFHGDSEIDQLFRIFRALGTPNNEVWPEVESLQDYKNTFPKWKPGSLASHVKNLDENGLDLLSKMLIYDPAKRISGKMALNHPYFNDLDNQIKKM
Chain of CDK1/cyclin B (P14635 whole entry partner, species assumed): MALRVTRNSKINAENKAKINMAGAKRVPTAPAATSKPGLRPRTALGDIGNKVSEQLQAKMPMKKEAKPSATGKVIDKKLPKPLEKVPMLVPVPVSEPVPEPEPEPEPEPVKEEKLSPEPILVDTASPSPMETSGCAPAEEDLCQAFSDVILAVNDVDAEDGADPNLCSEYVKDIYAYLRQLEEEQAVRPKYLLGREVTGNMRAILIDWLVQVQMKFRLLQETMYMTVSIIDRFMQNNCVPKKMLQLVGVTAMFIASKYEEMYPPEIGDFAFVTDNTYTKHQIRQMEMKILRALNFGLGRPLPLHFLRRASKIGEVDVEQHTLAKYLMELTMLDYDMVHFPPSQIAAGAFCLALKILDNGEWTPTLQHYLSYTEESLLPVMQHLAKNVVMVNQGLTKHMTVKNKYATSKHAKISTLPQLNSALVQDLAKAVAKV
Excerpt: A 384-well microtiter IMAP-FPT™ (Molecular Devices Trade Mark Technology) endpoint assay was used for CDK1/cyclin B kinase activity measurements. The same assay was used for IC50 determination of small molecule inhibitors.

CDK2/cyclin A = CDK2/cyclin A (Homo sapiens (Human), UniProt P24941); assay: CDK2/Cyclin A enzymatic activity assay (IMAP-FP)
[1] = Table 2, 3 μM ATP, read-out: CDK4
[2] = Table 2, 20 μM ATP, read-out: CDK1

Chain of CDK4/cyclin D1 (P11802 whole entry): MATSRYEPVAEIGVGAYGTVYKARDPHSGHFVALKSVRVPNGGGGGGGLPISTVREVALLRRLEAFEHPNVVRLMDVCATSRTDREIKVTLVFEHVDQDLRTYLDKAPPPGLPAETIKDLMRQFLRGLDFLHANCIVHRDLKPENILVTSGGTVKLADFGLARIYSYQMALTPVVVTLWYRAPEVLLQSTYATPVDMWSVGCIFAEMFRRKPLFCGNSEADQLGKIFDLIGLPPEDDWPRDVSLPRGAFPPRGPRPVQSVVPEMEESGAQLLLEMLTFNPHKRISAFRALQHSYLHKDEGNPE
Chain of CDK4/cyclin D1 (P24385 whole entry partner): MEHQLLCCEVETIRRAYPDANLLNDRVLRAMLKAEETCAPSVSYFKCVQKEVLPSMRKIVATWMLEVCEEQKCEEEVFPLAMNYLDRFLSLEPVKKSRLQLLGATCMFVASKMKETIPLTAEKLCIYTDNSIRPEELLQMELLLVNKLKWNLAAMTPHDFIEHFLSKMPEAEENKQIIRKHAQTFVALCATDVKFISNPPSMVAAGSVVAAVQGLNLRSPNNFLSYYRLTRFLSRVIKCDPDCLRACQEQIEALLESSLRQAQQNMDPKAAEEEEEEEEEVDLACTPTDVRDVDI

IC50 (CDK4/cyclin D1; [1])	IC50 (CDK1/cyclin B; [2])	IC50 (CDK2/cyclin A; Table 2, read-out: CDK2)	IC50 (CDK4/cyclin D1; Table 4, read-out: IC50 (μM) CDK4)	IC50 (CDK1/cyclin B; Table 4, read-out: IC50 (μM) CDK1)	IC50 (CDK2/cyclin A; Table 4, read-out: IC50 (μM) CDK2)	Compound
0.1 to 1 µM	> 15 µM	> 15 µM				CN(C)C(=O)c1cc2cnc(Nc3cnc(N4CCNCC4)cn3)nc2n1C1CCCC1 [Example 48, 7-Cyclopentyl-2-(3,4,5,6-tetrahydro-2-[1,2′]bipyrazinyl-5′-ylamino)-7H-pyrrolo[2,3-d]pyrimidine-6-carboxylic acid dimethylamide]
0.01 to 0.1 µM	> 15 µM	> 15 µM				CN(C)C(=O)c1cc2cnc(Nc3ccc(C(=O)N4CCNCC4)cn3)nc2n1C1CCCC1 [Example 49, 7-Cyclopentyl-2-[5-(piperazine-1-carbonyl)-pyridin-2-ylamino]-7H-pyrrolo[2,3-d]pyrimidine-6-carboxylic acid dimethylamide]
0.01 to 0.1 µM	> 15 µM	> 15 µM				CN(C)C(=O)c1cc2cnc(Nc3ccc(C(=O)N4CCC(N(C)C)CC4)cn3)nc2n1C1CCCC1 [Example 50, 7-Cyclopentyl-2-[5-(4-dimethylamino-piperidine-1-carbonyl)-pyridin-2-ylamino]-7H-pyrrolo[2,3-d]pyrimidine-6-carboxylic acid dimethylamide]
0.01 to 0.1 µM	> 15 µM	> 15 µM				CNC(=O)c1cc2cnc(Nc3ccc(N4CCN(C(C)C)CC4)cn3)nc2n1C1CCCC1 [Example 51, 7-Cyclopentyl-2-[5-(4-isopropyl-piperazin-1-yl)-pyridin-2-ylamino]-7H-pyrrolo[2,3-d]pyrimidine-6-carboxylic acid methylamide]
0.01 to 0.1 µM	> 15 µM	> 15 µM				CN(C)C(=O)c1cc2cnc(Nc3ccc(C(=O)N(C)C4CCNCC4)cn3)nc2n1C1CCCC1 [Example 53, 7-Cyclopentyl-2-[5-(methyl-piperidin-4-yl-carbamoyl)-pyridin-2-ylamino]-7H-pyrrolo[2,3-d]pyrimidine-6-carboxylic acid dimethylamide]
0.01 to 0.1 µM	> 15 µM	> 15 µM				CC1CN(Cc2ccc(Nc3ncc4cc(C(=O)N(C)C)n(C5CCCC5)c4n3)nc2)CCN1 (stereo not drawn) [Example 54, 7-Cyclopentyl-2-[5-(3-methyl-piperazin-1-ylmethyl)-pyridin-2-ylamino]-7H-pyrrolo[2,3-d]pyrimidine-6-carboxylic acid dimethylamide]
0.01 to 0.1 µM	> 15 µM	> 15 µM				C[C@H]1CN(Cc2ccc(Nc3ncc4cc(C(=O)N(C)C)n(C5CCCC5)c4n3)nc2)CCN1 [Example 55, 7-Cyclopentyl-2-[5-((S)-3-methyl-piperazin-1-ylmethyl)-pyridin-2-ylamino]-7H-pyrrolo[2,3-d]pyrimidine-6-carboxylic acid dimethylamide]
0.01 to 0.1 µM	> 15 µM	> 15 µM				C[C@H](O)CN1CCN(c2ccc(Nc3ncc4cc(C(=O)N(C)C)n(C5CCCC5)c4n3)nc2)CC1 [Example 56, 7-Cyclopentyl-2-{5-[4-((S)-2-hydroxy-propyl)-piperazin-1-yl]-pyridin-2-ylamino}-7H-pyrrolo[2,3-d]pyrimidine-6-carboxylic acid dimethylamide]
0.01 to 0.1 µM	> 15 µM	> 15 µM				C[C@@H](O)CN1CCN(c2ccc(Nc3ncc4cc(C(=O)N(C)C)n(C5CCCC5)c4n3)nc2)CC1 [Example 57, 7-Cyclopentyl-2-{5-[4-((R)-2-hydroxy-propyl)-piperazin-1-yl]-pyridin-2-ylamino}-7H-pyrrolo[2,3-d]pyrimidine-6-carboxylic acid dimethylamide]
0.01 to 0.1 µM	> 15 µM	> 15 µM				CNC(=O)c1cc2cnc(Nc3ccc(N4CCNCC4)cn3)nc2n1C1CCCC1 [Example 58, 7-Cyclopentyl-2-(5-piperazin-1-yl-pyridin-2-ylamino)-7H-pyrrolo[2,3-d]pyrimidine-6-carboxylic acid methylamide]
0.01 to 0.1 µM	> 15 µM	> 15 µM				CN(C)C(=O)c1cc2cnc(Nc3ccc(N(C)CCN)cn3)nc2n1C1CCCC1 [Example 59, 2-{5-[(2-Amino-ethyl)-methyl-amino]-pyridin-2-ylamino}-7-cyclopentyl-7H-pyrrolo[2,3-d]pyrimidine-6-carboxylic acid dimethylamide]
0.1 to 1 µM	> 15 µM	> 15 µM				CC(=O)N1CCN(Cc2ccc(Nc3ncc4cc(C(=O)N(C)C)n(C5CCCC5)c4n3)nc2)CC1 [Example 61, 2-[5-(4-Acetyl-piperazin-1-ylmethyl)-pyridin-2-ylamino]-7-cyclopentyl-7H-pyrrolo[2,3-d]pyrimidine-6-carboxylic acid dimethylamide]
0.01 to 0.1 µM	> 15 µM	> 15 µM				CC(C)N1CCN(Cc2ccc(Nc3ncc4cc(C(=O)N(C)C)n(C5CCCC5)c4n3)nc2)CC1 [Example 62, 7-Cyclopentyl-2-[5-(4-isopropyl-piperazin-1-ylmethyl)-pyridin-2-ylamino]-7H-pyrrolo[2,3-d]pyrimidine-6-carboxylic acid dimethylamide]
0.001 to 0.01 µM	> 15 µM	> 15 µM	0.008 µM	> 15 µM	> 15 µM	CC(C)N1CCN(c2ccc(Nc3ncc4cc(C(=O)N(C)C)n(C5CCCC5)c4n3)nc2)CC1 [Example 63, 7-Cyclopentyl-2-[5-(4-isopropyl-piperazin-1-yl)-pyridin-2-ylamino]-7H-pyrrolo[2,3-d]pyrimidine-6-carboxylic acid dimethylamide]
0.01 to 0.1 µM	> 15 µM	> 15 µM				CN(C)C(=O)c1cc2cnc(Nc3ccc(CN4CCN(C(=O)CN)CC4)cn3)nc2n1C1CCCC1 [Example 65, 2-{5-[4-(2-Amino-acetyl)-piperazin-1-ylmethyl]-pyridin-2-ylamino}-7-cyclopentyl-7H-pyrrolo[2,3-d]pyrimidine-6-carboxylic acid dimethylamide]
0.01 to 0.1 µM	> 15 µM	> 15 µM				C[C@H](CO)NCc1ccc(Nc2ncc3cc(C(=O)N(C)C)n(C4CCCC4)c3n2)nc1 [Example 66, 7-Cyclopentyl-2-{5-[((R)-2-hydroxy-1-methyl-ethylamino)-methyl]-pyridin-2 lamino}-7H-pyrrolo[2,3-d]pyrimidine-6-carboxylic acid dimethylamide]
0.01 to 0.1 µM	> 15 µM	> 15 µM				CN(C)C(=O)c1cc2cnc(Nc3ccc(N4CCNCC4)nn3)nc2n1C1CCCC1 [Example 67, 7-Cyclopentyl-2-(6-piperazin-1-yl-pyridazin-3-ylamino)-7H-pyrrolo[2,3-d]pyrimidine-6-carboxylic acid dimethylamide]
0.001 to 0.01 µM	> 15 µM	> 15 µM				CC(C)CCCN1CCN(c2ccc(Nc3ncc4cc(C(=O)N(C)C)n(C5CCCC5)c4n3)nc2)CC1 [Example 68, 7-Cyclopentyl-2-{5-[4-(4-methyl-pentyl)-piperazin-1-yl]-pyridin-2-ylamino}-7H-pyrrolo[2,3-d]pyrimidine-6-carboxylic acid dimethylamide]

Compound	IC50 (CDK4/cyclin D1; [1])	IC50 (CDK1/cyclin B; [2])	IC50 (CDK2/cyclin A; Table 2, read-out: CDK2)	IC50 (CDK4/cyclin D1; Table 4, read-out: IC50 (μM) CDK4)	IC50 (CDK1/cyclin B; Table 4, read-out: IC50 (μM) CDK1)	IC50 (CDK2/cyclin A; Table 4, read-out: IC50 (μM) CDK2)
CN(C)C(=O)c1cc2cnc(Nc3ccc(N4CCN(C[C@@H](O)CO)CC4)cn3)nc2n1C1CCCC1 [Example 46, 7-Cyclopentyl-2-{5-[4-((R)-2,3-dihydroxy-propyl)-piperazin-1-yl]-pyridin-2-ylamino}-7H-pyrrolo[2,3-d]pyrimidine-6-carboxylic acid dimethylamide]	0.01 to 0.1 µM	> 15 µM	> 15 µM			
CN(C)C1CCN(c2ccc(Nc3ncc4cc(C#N)n(C5CCCC5)c4n3)nc2)CC1 [Example 47, 7-Cyclopentyl-2-((4-dimethylaminopiperidin)-1-yl-pyridin-2-ylamino)-7H-pyrrolo[2,3-d]pyrimidine-6-carbonitrile]	0.001 to 0.01 µM	2.6 µM	8.3 µM			
CN(C)C(=O)c1cc2cnc(Nc3ccc(C4CCNCC4)cn3)nc2n1C1CCCC1 [Example 52, 7-Cyclopentyl-2-(1′,2′,3′,4′,5′,6-hexahydro-[3,4]bipyridinyl-6-ylamino)-7H-pyrrolo[2,3-d]pyrimidine-6-carboxylic acid dimethylamide]	0.01 to 0.1 µM	> 15 µM	> 15 µM			
CN(C)C(=O)c1cc2cnc(Nc3ccc(CN4CCN(C)C(=O)C4)cn3)nc2n1C1CCCC1 [Example 60, 7-Cyclopentyl-2-[5-(4-methyl-3-oxo-piperazin-1-ylmethyl)-pyridin-2-ylamino]-7H-pyrrolo[2,3-d]pyrimidine-6-carboxylic acid dimethylamide]	0.1 to 1 µM	> 15 µM	> 15 µM			
